Measurements reported in patent US20080090805A1, “CB-1 MODULATING COMPOUNDS AND THEIR USE” (ACADIA PHARMACEUTICALS INC., priority 2005, published 2008).

Biological target: native CB1 receptors (Rattus norvegicus, UniProt P20272)
Assay: CB1 receptor rat binding assay ([3H]SR141716A, rat brain membranes)
Conditions: rat brain membranes, [3H]SR141716A; for Ki: read-out: Binding rat pKi (converted)

native CB1 receptors, sequence (P20272 whole entry): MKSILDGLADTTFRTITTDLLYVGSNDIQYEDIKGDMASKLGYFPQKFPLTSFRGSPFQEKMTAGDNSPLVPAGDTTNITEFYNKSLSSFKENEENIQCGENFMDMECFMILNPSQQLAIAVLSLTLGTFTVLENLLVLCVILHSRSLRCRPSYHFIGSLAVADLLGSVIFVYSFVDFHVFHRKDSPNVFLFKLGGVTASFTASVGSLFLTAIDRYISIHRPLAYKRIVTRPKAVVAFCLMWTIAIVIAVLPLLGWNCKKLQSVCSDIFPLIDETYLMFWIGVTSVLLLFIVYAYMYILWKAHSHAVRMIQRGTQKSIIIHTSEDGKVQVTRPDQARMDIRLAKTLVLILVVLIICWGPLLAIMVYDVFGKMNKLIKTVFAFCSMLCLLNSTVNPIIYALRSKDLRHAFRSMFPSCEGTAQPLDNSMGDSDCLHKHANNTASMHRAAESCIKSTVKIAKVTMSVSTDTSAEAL

| Compound | Binding rat Inh % [%] | Ki [nM] | Binding rat pKi |
| --- | --- | --- | --- |
| CCCNC(=O)c1ccc2c(c1)N=C(c1cccc(Cl)c1)c1ccccc1S2 [drawing 1189] | 86 | 12.6 | – |
| O=C(Cc1ccccc1)NNC(=O)c1ccc2c(c1)N=C(c1ccc(F)cc1)c1ccccc1S2 [drawing 1190] | 65 | 12.6 | – |
| O=C(NCCc1ccc(Cl)cc1)c1ccc2c(c1)N=C(N1CCC(F)CC1)c1ccccc1S2 [drawing 1195] | – | 12.6 | – |
| CC(CNC(=O)c1ccc2c(c1)N=C(c1cccc(Cl)c1)c1cc(F)ccc1S2)c1ccccc1 (stereo not drawn) [drawing 1196] | – | 12.6 | – |
| CC(CNC(=O)c1ccc2c(c1)N=C(c1ccccc1)c1ccccc1S2)c1ccccc1 (stereo not drawn) [drawing 1197] | – | 12.6 | – |
| Cc1ccsc1C1=Nc2cc(C(=O)NCCC(F)(F)F)ccc2Sc2ccccc21 [drawing 1198] | 103 | 12.6 | – |
| CC(C)CNC(=O)c1ccc2c(c1)N=C(c1ccc(Cl)s1)c1ccccc1S2 [drawing 1201] | – | – | 8.6 |
| O=C(NCCc1cccnc1)c1ccc2c(c1)N=C(c1ccc(F)cc1)c1ccccc1S2 [drawing 1203] | 96 | 12.6 | – |
| O=C(NCc1ccc(Cl)cc1Cl)c1ccc2c(c1)N=C(c1ccccc1)c1ccccc1S2 [drawing 1204] | – | 12.6 | – |
| CCCCNC(=O)c1ccc2c(c1)N=C(c1ccc(Cl)cc1)c1ccccc1[S+]2[O-] (stereo not drawn) [drawing 1205] | – | 12.6 | – |
| O=C(NCCCc1ccccc1)c1ccc2c(c1)N=C(c1ccccc1F)c1ccccc1S2 [drawing 1206] | – | 12.6 | – |
| O=C(NCc1ccc(Cl)cc1Cl)c1ccc2c(c1)N=C(c1ccc(F)cc1)c1ccccc1S2 [drawing 1211] | – | 12.6 | – |
| O=C(NCc1ccc(F)cc1)c1ccc2c(c1)N=C(N1CCCCC1)c1ccccc1S2 [drawing 1212] | – | 12.6 | – |
| CC(CNC(=O)c1ccc2c(c1)N=C(c1ccccc1F)c1ccccc1S2)c1ccccc1 (stereo not drawn) [drawing 1214] | – | 15.8 | – |
| O=C(NCc1ccccc1)c1ccc2c(c1)N=C(c1ccccc1)c1ccccc1S2 [drawing 1219] | – | 15.8 | – |
| O=C(NCCc1ccncc1)c1ccc2c(c1)N=C(c1ccc(F)cc1)c1ccccc1S2 [drawing 1220] | 103 | 15.8 | – |
| O=C(NCc1cccnc1)c1ccc2c(c1)N=C(c1cccc(F)c1)c1ccccc1S2 [drawing 1221] | 84 | 15.8 | – |
| O=C(NCCc1cccc(Cl)c1)c1ccc2c(c1)N=C(N1CCCCC1)c1ccccc1S2 [drawing 1222] | – | 15.8 | – |
| Cc1ccc(CNC(=O)c2ccc3c(c2)N=C(c2ccc(Cl)s2)c2ccccc2S3)o1 [drawing 1223] | 106 | 0.501 | – |
| O=C(NC1CCC(F)(F)CC1)c1ccc2c(c1)N=C(c1ccc(Cl)s1)c1ccccc1S2 [drawing 1224] | 107 | 0.631 | – |
| Cc1ccsc1C1=Nc2cc(C(=O)NCCCC(F)(F)F)ccc2Sc2ccccc21 [drawing 1225] | 109 | 0.631 | – |

| Compound | Binding rat Inh % [%] | Ki [nM] | Binding rat pKi |
| --- | --- | --- | --- |
| O=C(NCCCC(F)(F)F)c1ccc2c(c1)N=C(c1ccc(Cl)cc1)c1ccccc1S2 [drawing 1226] | 89 | 0.631 | – |
| O=C(NCc1cccs1)c1ccc2c(c1)N=C(c1ccccc1F)c1ccccc1S2 [drawing 1227] | 94 | 15.8 | – |
| O=C(NCCc1ccc(Cl)cc1)c1ccc2c(c1)N=C(c1ccccc1F)c1ccccc1S2 [drawing 1228] | – | 15.8 | – |
| CC(C)CNC(=O)c1ccc2c(c1)N=C(c1ccc(Cl)cn1)c1ccc(F)cc1S2 [drawing 1229] | 87 | 15.8 | – |
| CCCCNC(=O)c1ccc2c(c1)N=C(c1ccc(Cl)cn1)c1cc(F)ccc1S2 [drawing 1230] | 83 | 15.8 | – |
| Cc1ccc(CNC(=O)c2ccc3c(c2)N=C(c2cccc(Cl)c2)c2ccccc2S3)o1 [drawing 1231] | 85 | 0.631 | – |
| Cc1csc(CNC(=O)c2ccc3c(c2)N=C(c2ccc(Cl)s2)c2ccccc2S3)c1 [drawing 1232] | 90 | 0.794 | – |
| O=C(NCCCC(F)(F)F)c1ccc2c(c1)N=C(c1ccsc1)c1ccccc1S2 [drawing 1233] | 97 | 0.794 | – |
| Cc1csc(CNC(=O)c2ccc3c(c2)N=C(c2cccc(F)c2)c2ccccc2S3)c1 [drawing 1234] | 89 | 0.794 | – |
| CCCCNC(=O)c1ccc2c(c1)N=C(c1cccc(Cl)c1)c1cc(Cl)ccc1S2 [drawing 1235] | 89 | 15.8 | – |
| CCCNC(=O)c1ccc2c(c1)N=C(c1ccc(Cl)s1)c1ccccc1S2 [drawing 1236] | 89 | 15.8 | – |
| COc1cccc(C2=Nc3cc(C(=O)NCCC(F)(F)F)ccc3Sc3ccccc32)n1 [drawing 1237] | 91 | 15.8 | – |
| CCCCNC(=O)c1ccc2c(c1)N=C(c1ccc(F)cc1)c1ccccc1S2 [drawing 1238] | – | 15.8 | – |
| Cc1ccc(CNC(=O)c2ccc3c(c2)N=C(c2ccc(F)cc2)c2ccccc2S3)o1 [drawing 1239] | 108 | 0.794 | – |
| CC(C)CCNC(=O)c1ccc2c(c1)N=C(c1cccc(F)c1)c1ccccc1S2 [drawing 1240] | 99 | 0.794 | – |
| O=C(NC1CCC(F)(F)CC1)c1ccc2c(c1)N=C(c1cccc(Cl)c1)c1ccccc1S2 [drawing 1242] | 79 | 1 | – |
| CCCCNC(=O)c1cc2c(cc1C)Sc1ccccc1C(c1ccc(Cl)cc1)=N2 [drawing 1243] | 119 | 15.8 | – |
| CCCCNC(=O)c1ccc2c(c1)N=C(c1sccc1C)c1ccccc1S2 [drawing 1244] | 103 | 15.8 | – |
| O=C(NCc1ccco1)c1ccc2c(c1)N=C(c1cccc(F)c1)c1ccccc1S2 [drawing 1252] | 93 | 15.8 | – |
| Cc1ccsc1C1=Nc2cc(C(=O)NC3CCC(F)(F)CC3)ccc2Sc2ccccc21 [drawing 1265] | 93 | 1.58 | – |
| O=C(NC1CCCC1)c1ccc2c(c1)N=C(c1ccc(F)cc1)c1ccccc1S2 [drawing 1268] | 84 | 20 | – |

Continued, values first:

| Binding rat Inh % [%] | Ki [nM] | Binding rat pKi | Compound |
| --- | --- | --- | --- |
| – | 15.8 | – | CCN(CCNC(=O)c1ccc2c(c1)N=C(c1ccccc1)c1ccccc1S2)c1ccccc1 [drawing 1245] |
| 87 | 15.8 | – | CCCCNC(=O)c1ccc2c(c1)N=C(c1ccc(F)cn1)c1ccccc1S2 [drawing 1246] |
| 97 | 1 | – | CCCCNC(=O)c1ccc2c(c1)N=C(c1ccc(Cl)cc1)c1sccc1S2 [drawing 1247] |
| 83 | 1 | – | O=C(NCCCC(F)(F)F)c1ccc2c(c1)N=C(c1cccc(F)c1)c1ccccc1S2 [drawing 1248] |
| 112 | 1 | – | O=C(NC1CCC(F)(F)CC1)c1ccc2c(c1)N=C(c1cccc(F)c1)c1ccccc1S2 [drawing 1249] |
| 88 | 1 | – | O=C(NCCC(F)(F)F)c1ccc2c(c1)N=C(c1cccc(Cl)c1)c1ccccc1S2 [drawing 1250] |
| 88 | 15.8 | – | Cc1ccsc1C1=Nc2cc(C(=O)NCCC(C)C)ccc2Sc2ccccc21 [drawing 1251] |
| – | 15.8 | – | O=C(NCc1ccccc1)c1ccc2c(c1)N=C(N1CCCCC1)c1ccccc1S2 [drawing 1253] |
| 97 | 15.8 | – | CC(C)CNC(=O)c1ccc2c(c1)N=C(c1ccc(F)cn1)c1ccccc1S2 [drawing 1254] |
| 93 | 1 | – | Cc1csc(CNC(=O)c2ccc3c(c2)N=C(c2sccc2C)c2ccccc2S3)c1 [drawing 1255] |
| 98 | 1.26 | – | O=C(NCc1cccs1)c1ccc2c(c1)N=C(c1ccc(Cl)s1)c1ccccc1S2 [drawing 1256] |
| – | 1.26 | – | O=C(NCc1cccc(Cl)c1)c1ccc2c(c1)N=C(c1ccc(Cl)cc1)c1ccccc1S2 [drawing 1257] |
| 94 | 1.26 | – | O=C(NC1CCC(F)(F)CC1)c1ccc2c(c1)N=C(c1ccc(F)cc1)c1ccccc1S2 [drawing 1258] |
| 65 | 15.8 | – | CCCNC(=O)c1ccc2c(c1)N=C(c1ccc(Br)cc1)c1ccccc1S2 [drawing 1259] |
| 76 | 15.8 | – | O=C(NCc1cccnc1)c1ccc2c(c1)N=C(c1ccc(Cl)cc1)c1ccccc1S2 [drawing 1260] |
| 91 | 20 | – | C[C@@H]1CCC[C@H](C)N1NC(=O)c1ccc2c(c1)N=C(c1cccc(F)c1)c1ccccc1S2 [drawing 1261] |
| 87 | 20 | – | CCCNC(=O)c1ccc2c(c1)N=C(c1ccc(F)cc1)c1ccccc1S2 [drawing 1262] |
| 94 | 1.58 | – | Cc1csc(CNC(=O)c2ccc3c(c2)N=C(c2cccc(C)n2)c2ccccc2S3)c1 [drawing 1263] |
| – | 1.58 | – | O=C(NCc1cccc(Cl)c1)c1ccc2c(c1)N=C(c1cccc(Cl)c1)c1ccccc1S2 [drawing 1264] |
| – | 1.58 | – | O=C(NCc1cccc(Cl)c1)c1ccc2c(c1)N=C(c1ccc(F)cc1)c1ccccc1S2 [drawing 1266] |
| 93 | 20 | – | CCCCNC(=O)c1ccc2c(c1)N=C(c1ccc(Cl)s1)c1ccc(F)cc1S2 [drawing 1267] |
| 83 | 20 | – | CC(C)NC(=O)c1ccc2c(c1)N=C(c1cccc(Cl)c1)c1ccccc1S2 [drawing 1269] |
| 112 | 20 | – | O=C(NCc1ccccn1)c1ccc2c(c1)N=C(c1ccc(Cl)cc1)c1ccccc1S2 [drawing 1270] |
| 109 | 2 | – | O=C(NCc1cccs1)c1ccc2c(c1)N=C(c1cccc(Cl)c1)c1ccccc1S2 [drawing 1272] |
| 85 | 2 | – | O=C(NCCC(F)(F)F)c1ccc2c(c1)N=C(c1ccc(Cl)s1)c1ccccc1S2 [drawing 1273] |
| 96 | 2 | – | CCCCNC(=O)c1ccc2c(c1)N=C(c1ccc(Cl)c(F)c1)c1ccccc1S2 [drawing 1274] |
